Measured values reported in paper PMC12605013, “SAG1.3-derived Frizzled-targeting small-molecule compounds” (The Journal of Biological Chemistry, 2025).

Legend:
ΔCRD-Nluc-FZD6 = molecular target: T1, ΔCRD-Nluc-FZD6 (Homo sapiens, UniProt O60353); assay: BRET-based BODIPY-cyclopamine competition binding at FZD6 lacking the CRD; conditions: BODIPY-cyclopamine 200 nM; ΔFZD1-10 HEK293T cells; read-out: pIC50 (11) mean ± SEM, ΔCRD-Nluc-FZD6 (converted)
T1 construct: amplifying ΔCRD-FZD6 (starting from D156) using SNAP-FZD6 as a template; expressed in transfected cells; host or cells: ΔFZD1–10 HEK293T cells
T1 sequence (O60353 156-706): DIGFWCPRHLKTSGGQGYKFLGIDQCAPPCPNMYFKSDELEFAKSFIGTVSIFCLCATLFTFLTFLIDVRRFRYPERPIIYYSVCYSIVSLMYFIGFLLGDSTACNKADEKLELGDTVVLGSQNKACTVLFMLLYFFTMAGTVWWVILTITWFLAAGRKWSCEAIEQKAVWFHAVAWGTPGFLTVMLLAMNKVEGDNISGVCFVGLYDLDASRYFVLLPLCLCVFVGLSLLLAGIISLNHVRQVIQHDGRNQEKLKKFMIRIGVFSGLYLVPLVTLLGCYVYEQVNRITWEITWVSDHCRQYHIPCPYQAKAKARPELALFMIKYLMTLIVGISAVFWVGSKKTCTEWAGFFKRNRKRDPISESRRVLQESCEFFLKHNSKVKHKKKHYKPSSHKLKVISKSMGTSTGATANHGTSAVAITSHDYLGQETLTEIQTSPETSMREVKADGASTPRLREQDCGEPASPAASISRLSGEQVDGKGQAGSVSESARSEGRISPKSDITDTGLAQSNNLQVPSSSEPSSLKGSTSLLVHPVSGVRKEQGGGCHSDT
Procedure: After 24 h, cells were washed once with Hanks' balanced salt solution (HBSS), followed by the addition of 80 μl of HBSS. Next, 10 μl of the competitive ligand, that is, the tested SAG1.3 derivative (either in different concentrations for the concentration–response curves or at a final concentration of 10 μM for the first screens) and 10 μl of the fluorescent tracer BODIPY–cyclopamine (final concentration: 300 nM for the first screens, 200 nM for the concentration–response experiments) were added. All serial dilutions were prepared in HBSS. The cells were incubated for 90 min at 37 °C without additional CO2, after which 10 μl of luciferase substrate diluted in HBSS (furimazine; Promega, N1572, final dilution: 1:1000 for first screening) and coelenterazine h (Biosynth; final concentration: 5 μM for concentration–response experiments) were added to the cells. Following a 10 min incubation period in the dark, the measurement was started on a BMG Labtech ClarioStar or TECAN Spark multimode microplate reader, prewarmed to 37 °C. Nluc bioluminescence was detected between 460 and 490 nm (ClarioStar) or 460 and 500 nm (TECAN Spark). The emission of the fluorescent tracer was detected between 520 and 550 nm (ClarioStar) or between 520 and 560 nm (TECAN Spark). […]

[1] = molecular target: T2, muscarinic acetylcholine M1 receptor (Homo sapiens, UniProt P11229); assay: BRET-based Venus-mGsq recruitment assay at M1R-Nluc; format: cell-based
T2 construct: HA (N); expressed in transfected cells; host or cells: HEK293A cells
T2 sequence (P11229 2-460): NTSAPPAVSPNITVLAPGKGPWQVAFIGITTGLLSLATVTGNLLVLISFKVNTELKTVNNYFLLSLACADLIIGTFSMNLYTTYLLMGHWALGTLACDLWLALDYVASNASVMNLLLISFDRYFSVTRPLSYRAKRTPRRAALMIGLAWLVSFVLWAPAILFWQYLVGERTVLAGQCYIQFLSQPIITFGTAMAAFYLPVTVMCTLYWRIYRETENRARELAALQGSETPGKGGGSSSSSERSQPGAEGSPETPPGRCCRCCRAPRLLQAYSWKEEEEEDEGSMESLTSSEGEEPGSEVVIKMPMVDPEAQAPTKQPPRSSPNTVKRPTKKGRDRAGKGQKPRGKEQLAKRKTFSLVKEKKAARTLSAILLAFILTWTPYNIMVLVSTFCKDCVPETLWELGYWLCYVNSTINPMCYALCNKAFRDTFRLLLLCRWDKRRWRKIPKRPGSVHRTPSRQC
Procedure: The transfected cells were seeded at a density of 40,000 cells per well into a white opaque 96-well plate. […] Following a 10 min incubation period in the dark, the measurement was started on a TECAN Spark multimode microplate reader, prewarmed to 37 °C. After the three baseline measurements, the ligands diluted in HBSS were added (10 μl) and the measurement continued for a further 15 min. Nluc bioluminescence was detected between 460 and 500 nm. The emission of Venus was detected between 520 and 560 nm.
Figure S3. […] Experiments were performed in HEK293 cells.

HPAF-II cells = assay: Cell viability (AlamarBlue) of HPAF-II cells; format: cell-based, human; conditions: one-week treatment; 10 µM
Procedure: (§1) HPAF-II cells and PANC-1 cells were seeded in DMEM at a density of 1000 cells per well into a black opaque 96-well plate (Greiner BioOne). After 1 day, the medium was exchanged with complete DMEM containing either compound 11, the porcupine inhibitor C59, or DMSO (vehicle control). After 3 days of incubation (37 °C, 5% CO2), the medium was exchanged once again with DMEM containing the same concentration of ligands or DMSO (vehicle control). Three days after (equal to 7 days after seeding), the medium was removed and 90 μl of fresh DMEM (without any ligands) were added. Last, 10 μl of AlamarBlue HS reagent (Thermo Fisher Scientific; catalog no.: A50100) were added to each well, and the cells were incubated for 4 h at 37 °C inside the incubator (5% CO2). After the incubation step, fluorescence was read using a TECAN Spark multimode microplate reader (excitation: 535 ± 25 nm, emission: 595 ± 35 nm).
(§2) For each cell viability experiment, the fluorescence measured in ligand-treated wells was normalized to the average fluorescence from wells treated with vehicle control (DMSO).

PANC-1 cells = assay: Cell viability (AlamarBlue) of PANC-1 cells; format: cell-based, human; conditions: one-week treatment; 10 µM
Procedure: as §1, §2

Which results are given for `CC(=O)Nc1cccc(C(=O)NC2CCC(N(Cc3cccc(-c4ccncc4)c3)C(=O)c3sc4ccccc4c3Cl)CC2)c1` (centres unmarked) [compound 11, N-((1r,4r)-4-(3-Acetamidobenzamido)cyclohexyl)-3-chloro-N-(3-(pyridin-4-yl)benzyl)benzo[b]thiophene-2-carboxamide]?
IC50 (ΔCRD-Nluc-FZD6): 851 nM; Effect on carbachol-induced M1-mediated mini-Gsq response ([1]; 10 µM compound +/- carbachol): nor affected the concentration-dependent M1-mediated mini-Gsq response; mini-Gsq recruitment, compound alone (agonist mode) ([1]; increasing concentrations of compound): neither elicited a mini-Gsq recruitment on its own; Cell viability of RNF43-negative HPAF-II cells (HPAF-II cells): strongly reduced; Cell viability of RNF43-wildtype PANC-1 cells (PANC-1 cells): not significantly affected
